The term IC50 denotes the concentration at which inhibition is half-maximal.

Where only a bound is given, the exact number is not on record here.

Our source for the IC50 values is patent US8148391B2 (Cephalon, Inc., priority 2006, dated 2012).

Assay [1] concerns the target T1, baculovirus-expressed ALK (Homo sapiens, UniProt Q9UM73).
T1 construct: host or cells: baculovirus expression system
Description: ALK Kinase Assay (ELISA-type, time-resolved fluorescence). The format is biochemical. The conditions noted are these: 1 μM ATP (Km level); read-out: ALK Activity (ALK Kinase Inhibition, IC50). In outline:
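Substrate coating: phospholipase C-γ, 10 μg/mL in TBS. Kinase step: 30 ng/ml ALK, 15 min, 37° C. Detection and analysis: Eu-N1 PT66 antibody, with IC50 fitted as a sigmoidal variable-slope dose-response curve.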
In general terms: In an ELISA, binding on a coated surface is turned into a signal by an enzyme label.

The target in assay [2] is T2, c-Met (cytoplasmic domain) (Homo sapiens, UniProt P08581).
T2 construct: 10 ng/mL c-Met (cytoplasmic domain, Invitrogen Corporation #PV3143); purchased Invitrogen Corporation PV3143
T2 sequence (P08581 956-1390 limits assumed): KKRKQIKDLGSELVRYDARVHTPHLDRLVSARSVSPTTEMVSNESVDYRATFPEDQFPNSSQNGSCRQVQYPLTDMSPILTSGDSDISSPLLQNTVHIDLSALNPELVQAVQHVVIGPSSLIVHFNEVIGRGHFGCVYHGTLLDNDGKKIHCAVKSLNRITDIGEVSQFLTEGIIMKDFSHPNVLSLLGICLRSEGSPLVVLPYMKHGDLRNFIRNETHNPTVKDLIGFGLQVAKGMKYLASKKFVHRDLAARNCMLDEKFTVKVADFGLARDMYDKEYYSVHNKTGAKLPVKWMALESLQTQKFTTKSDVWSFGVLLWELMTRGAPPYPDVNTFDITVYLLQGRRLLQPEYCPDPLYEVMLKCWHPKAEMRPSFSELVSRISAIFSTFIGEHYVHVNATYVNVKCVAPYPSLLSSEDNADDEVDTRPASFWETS
The experiment in a line: c-Met Kinase Assay (same methods as for ALK, with modifications). The format is biochemical. Conditions: 1 μM ATP (Km level); read-out: cMet Activity (c-Met Kinase Inhibition, IC50). The procedure, abridged: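 Wells were coated with 10 μg/mL phospholipase C-γ substrate in TBS, and reactions were started with 10 ng/mL c-Met cytoplasmic domain and run at 37° C for 15 minutes. Phosphorylated product was detected with Eu-N1-labeled PT66 antibody. IC50 values came from sigmoidal variable-slope fits of percent inhibition versus log compound concentration.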

T1 sequence (Q9UM73 19-1620): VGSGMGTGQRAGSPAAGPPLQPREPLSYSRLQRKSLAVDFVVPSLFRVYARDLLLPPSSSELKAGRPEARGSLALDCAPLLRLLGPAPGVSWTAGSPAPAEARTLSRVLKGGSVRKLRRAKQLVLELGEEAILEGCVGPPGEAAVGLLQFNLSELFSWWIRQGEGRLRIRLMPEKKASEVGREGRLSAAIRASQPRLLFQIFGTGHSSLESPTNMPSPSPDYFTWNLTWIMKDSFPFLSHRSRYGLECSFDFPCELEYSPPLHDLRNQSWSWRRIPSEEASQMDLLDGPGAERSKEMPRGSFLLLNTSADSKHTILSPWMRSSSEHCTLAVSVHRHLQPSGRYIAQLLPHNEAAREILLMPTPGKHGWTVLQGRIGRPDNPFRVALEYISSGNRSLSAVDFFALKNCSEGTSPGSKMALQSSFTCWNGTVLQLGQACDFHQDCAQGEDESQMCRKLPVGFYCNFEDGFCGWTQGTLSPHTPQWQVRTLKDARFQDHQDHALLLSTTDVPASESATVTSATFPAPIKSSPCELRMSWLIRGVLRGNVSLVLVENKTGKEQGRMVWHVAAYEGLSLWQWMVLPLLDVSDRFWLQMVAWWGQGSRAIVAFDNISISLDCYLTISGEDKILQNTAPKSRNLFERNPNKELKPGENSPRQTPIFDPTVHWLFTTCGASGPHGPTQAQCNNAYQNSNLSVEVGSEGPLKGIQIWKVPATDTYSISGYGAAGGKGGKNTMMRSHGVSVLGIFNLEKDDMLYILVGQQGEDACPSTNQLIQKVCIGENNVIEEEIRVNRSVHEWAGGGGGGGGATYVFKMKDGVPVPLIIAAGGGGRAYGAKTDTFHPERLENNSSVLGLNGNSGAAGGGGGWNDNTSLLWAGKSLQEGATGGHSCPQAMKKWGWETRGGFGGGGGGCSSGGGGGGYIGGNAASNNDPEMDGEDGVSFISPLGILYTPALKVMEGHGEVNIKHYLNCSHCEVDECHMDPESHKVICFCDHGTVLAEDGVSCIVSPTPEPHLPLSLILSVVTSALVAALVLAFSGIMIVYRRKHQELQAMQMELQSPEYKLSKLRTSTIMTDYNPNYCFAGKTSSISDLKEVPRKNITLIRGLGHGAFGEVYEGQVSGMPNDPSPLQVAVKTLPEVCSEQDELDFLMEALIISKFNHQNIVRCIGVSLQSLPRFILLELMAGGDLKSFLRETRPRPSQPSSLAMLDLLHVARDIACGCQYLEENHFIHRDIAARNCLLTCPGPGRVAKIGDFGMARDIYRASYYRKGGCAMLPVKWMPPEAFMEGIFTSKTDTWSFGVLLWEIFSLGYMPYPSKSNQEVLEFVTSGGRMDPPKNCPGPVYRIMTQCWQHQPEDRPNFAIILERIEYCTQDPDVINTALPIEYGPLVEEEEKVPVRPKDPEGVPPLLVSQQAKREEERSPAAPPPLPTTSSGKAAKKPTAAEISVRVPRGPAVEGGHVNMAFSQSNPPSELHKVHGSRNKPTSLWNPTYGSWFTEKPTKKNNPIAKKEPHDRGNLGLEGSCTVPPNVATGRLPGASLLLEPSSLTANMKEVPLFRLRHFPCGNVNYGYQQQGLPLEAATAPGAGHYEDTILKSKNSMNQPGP

`CN1CCN(c2ccc(Nc3nc(Nc4ccc5c(c4)C(C)(C)CCC(=O)N5)ncc3Cl)c(-n3cccn3)c2)CC1` [Example 628, 7-{5-Chloro-4-[4-(4-methyl-piperazin-1-yl)-2-pyrazol-1-yl-phenylamino]-pyrimidin-2-ylamino}-5,5-dimethyl-1,3,4,5-tetrahydro-benzo[b]azepin-2-one]: the IC50 is less than 100 nM in assay [1] and 1000 to 10000 nM in assay [2].
The matching figures for `CC1(C)CCC(=O)Nc2ccc(Nc3ncc(Cl)c(Nc4ccc(N5CCC(C(=O)O)CC5)cc4-n4cccn4)n3)cc21` [Example 629, 1-{4-[5-Chloro-2-(5,5-dimethyl-2-oxo-2,3,4,5-tetrahydro-1H-benzo[b]azepin-7-ylamino)-pyrimidin-4-ylamino]-3-pyrazol-1-yl-phenyl}-piperidine-4-carboxylic acid]: less than 100 nM and 1000 to 10000 nM.
Turning to `COc1cc2c(cc1Nc1ncc(Cl)c(Nc3ccc(N4CCC(C(=O)O)CC4)cc3-n3cccn3)n1)CCN(CC(=O)N(C)C)CC2` [Example 630, 1-{4-[5-Chloro-2-(3-dimethylcarbamoylmethyl-8-methoxy-2,3,4,5-tetrahydro-1H-benzo[d]azepin-7-ylamino)-pyrimidin-4-ylamino]-3-pyrazol-1-yl-phenyl}-piperidine-4-carboxylic acid], the 50% inhibitory concentration (IC50) in assay [1] is less than 100 nM; in assay [2], greater than 10000 nM.
The matching figures for `COc1cc2c(cc1Nc1ncc(Cl)c(Nc3ccc(N(C)C)cc3-n3cccn3)n1)CCN(CC(=O)N(C)C)CC2` [Example 631, 2-{7-[5-Chloro-4-(4-dimethylamino-2-pyrazol-1-yl-phenylamino)-pyrimidin-2-ylamino]-8-methoxy-1,2,4,5-tetrahydro-benzo[d]azepin-3-yl}-N,N-dimethyl-acetamide]: less than 100 nM and greater than 10000 nM.
Regarding `COc1c(Nc2ncc(Cl)c(N[C@H]3[C@@H](C(N)=O)[C@@H]4C=C[C@H]3C4)n2)ccc2c1C(=O)C[C@@H](NC(C)=O)CC2` [Example 632, (1S,2S,3R,4R)-3-[2-((S)-7-Acetylamino-1-methoxy-9-oxo-6,7,8,9-tetrahydro-5H-benzocyclohepten-2-ylamino)-5-chloro-pyrimidin-4-ylamino]-bicyclo[2.2.1]hept-5-ene-2-carboxylic acid amide], the results for the IC50 in assay [1] and in assay [2] were 100 to 1000 nM and greater than 10000 nM, respectively.
As for `COc1ccc(Nc2nc(Nc3cc4c(cc3OC)CCN(C(=O)C3COCCO3)CC4)ncc2Cl)c(-n2cccn2)c1` (centres unmarked) [Example 633, {7-[5-Chloro-4-(4-methoxy-2-pyrazol-1-yl-phenylamino)-pyrimidin-2-ylamino]-8-methoxy-1,2,4,5-tetrahydro-benzo[d]azepin-3-yl}-[1,4]dioxan-2-yl-methanone], the figures for the IC50 in assay [1] and in assay [2] were less than 100 nM and greater than 10000 nM, respectively.
As for `COc1cc2c(cc1Nc1ncc(Cl)c(Nc3ccccc3S(=O)(=O)N(C)C)n1)CCN(C(=O)C1COCCO1)CC2` (centres unmarked) [Example 634, 2-{5-Chloro-2-[3-([1,4]dioxane-2-carbonyl)-8-methoxy-2,3,4,5-tetrahydro-1H-benzo[d]azepin-7-ylamino]-pyrimidin-4-ylamino}-N,N-dimethyl-benzenesulfonamide], the IC50 in assay [1] is less than 100 nM; in assay [2], greater than 10000 nM.
With `COc1cc2c(cc1Nc1ncc(Cl)c(N[C@H]3[C@@H](C(N)=O)[C@@H]4C=C[C@H]3C4)n1)CCN(C(=O)C1COCCO1)CC2` (stereo partly drawn) [Example 635, (1S,2S,3R,4R)-3-{5-Chloro-2-[3-([1,4]dioxane-2-carbonyl)-8-methoxy-2,3,4,5-tetrahydro-1H-benzo[d]azepin-7-ylamino]-pyrimidin-4-ylamino}-bicyclo[2.2.1]hept-5-ene-2-carboxylic acid amide], the concentration for half-maximal inhibition (IC50) was less than 100 nM in assay [1] and greater than 10000 nM in assay [2].
With `COc1ccc(Nc2nc(Nc3cc4c(cc3OC)CCN(CC3COCCO3)CC4)ncc2Cl)c(-n2cccn2)c1` (centres unmarked) [Example 636, 5-Chloro-N*2*-(3-[1,4]dioxan-2-ylmethyl-8-methoxy-2,3,4,5-tetrahydro-1H-benzo[d]azepin-7-yl)-N*4*-(4-methoxy-2-pyrazol-1-yl-phenyl)-pyrimidine-2,4-diamine], the IC50 in assay [1] was less than 100 nM; in assay [2] it was greater than 10000 nM.
As for `COc1cc2c(cc1Nc1ncc(Cl)c(Nc3ccccc3S(=O)(=O)N(C)C)n1)CCN(CC1COCCO1)CC2` (centres unmarked) [Example 637, 2-[5-Chloro-2-(3-[1,4]dioxan-2-ylmethyl-8-methoxy-2,3,4,5-tetrahydro-1H-benzo[d]azepin-7-ylamino)-pyrimidin-4-ylamino]-N,N-dimethyl-benzenesulfonamide], the IC50 in assay [1] was less than 100 nM; in assay [2], 1000 to 10000 nM.
In the case of `CN(C)S(=O)(=O)c1ccccc1Nc1nc(Nc2ccc3c(c2)CCN(C(=O)C2COCCO2)CC3)ncc1Cl` (centres unmarked) [Example 638, 2-{5-Chloro-2-[3-([1,4]dioxane-2-carbonyl)-2,3,4,5-tetrahydro-1H-benzo[d]azepin-7-ylamino]-pyrimidin-4-ylamino}-N,N-dimethyl-benzenesulfonamide], the IC50 in assay [1] and in assay [2] was less than 100 nM in each case.
`CNC(=O)c1cccc(F)c1Nc1nc(Nc2ccc3c(c2)CCN(C(=O)C2COCCO2)CC3)ncc1Cl` (centres unmarked) [Example 639, 2-{5-Chloro-2-[3-([1,4]dioxane-2-carbonyl)-2,3,4,5-tetrahydro-1H-benzo[d]azepin-7-ylamino]-pyrimidin-4-ylamino}-3-fluoro-N-methyl-benzamide]: the half-maximal inhibitory concentration (IC50) in assay [1] and in assay [2] was less than 100 nM throughout.
As to `C#CCNC(=O)c1cccc(F)c1Nc1nc(Nc2ccc3c(c2)CCN(C(=O)C2COCCO2)CC3)ncc1Cl` (centres unmarked) [Example 640, 2-{5-Chloro-2-[3-([1,4]dioxane-2-carbonyl)-2,3,4,5-tetrahydro-1H-benzo[d]azepin-7-ylamino]-pyrimidin-4-ylamino}-3-fluoro-N-prop-2-ynyl-benzamide], the results for the IC50 in assay [1] and in assay [2] were 100 to 1000 nM and less than 100 nM, respectively.
On to `CN(C)S(=O)(=O)c1ccccc1Nc1nc(Nc2ccc3c(c2)CCN(CC2COCCO2)CC3)ncc1Cl` (centres unmarked) [Example 641, 2-[5-Chloro-2-(3-[1,4]dioxan-2-ylmethyl-2,3,4,5-tetrahydro-1H-benzo[d]azepin-7-ylamino)-pyrimidin-4-ylamino]-N,N-dimethyl-benzenesulfonamide], for which the IC50 in assay [1] and in assay [2] was less than 100 nM each time.
For `COc1ccc(Nc2nc(Nc3ccc4c(c3)CCN(CC3COCCO3)CC4)ncc2Cl)c(-n2cccn2)c1` (centres unmarked) [Example 642, 5-Chloro-N*2*-(3-[1,4]dioxan-2-ylmethyl-2,3,4,5-tetrahydro-1H-benzo[d]azepin-7-yl)-N*4*-(4-methoxy-2-pyrazol-1-yl-phenyl)-pyrimidine-2,4-diamine], the values for the IC50 in assay [1] and in assay [2] were less than 100 nM and 100 to 1000 nM, respectively.
Regarding `CNC(=O)c1ccccc1Nc1nc(Nc2ccc3c(c2)CCC(NCC(F)(F)F)CC3)ncc1Cl` (centres unmarked) [Example 651, 2-{5-Chloro-2-[7-(2,2,2-trifluoro-ethylamino)-6,7,8,9-tetrahydro-5H-benzocyclohepten-2-ylamino]-pyrimidin-4-ylamino}-N-methyl-benzamide], the IC50 in assay [1] and in assay [2] was less than 100 nM in each case.
As to `NC(=O)[C@@H]1CCCC[C@H]1Nc1nc(Nc2ccc3c(c2)CCC(NCC(F)(F)F)CC3)ncc1Cl` (some centres unmarked) [Example 653], the figures for the IC50 in assay [1] and in assay [2] were less than 100 nM and 100 to 1000 nM, respectively.
On to `NC(=O)[C@@H]1[C@H]2CC[C@H](C2)[C@@H]1Nc1nc(Nc2ccc3c(c2)CCC(NCC(F)(F)F)CC3)ncc1Cl` (stereo partly drawn) [Example 654, (1S,2R,3S,4R)-3-{5-Chloro-2-[7-(2,2,2-trifluoro-ethylamino)-6,7,8,9-tetrahydro-5H-benzocyclohepten-2-ylamino]-pyrimidin-4-ylamino}-bicyclo[2.2.1]heptane-2-carboxylic acid amide], for which the IC50 was less than 100 nM in assay [1] and 100 to 1000 nM in assay [2].
With `Cn1ccnc1-c1ccccc1Nc1nc(Nc2ccc3c(c2)CCC(NCC(F)(F)F)CC3)ncc1Cl` (centres unmarked) [Example 655, 5-Chloro-N*4*-[2-(1-methyl-1H-imidazol-2-yl)-phenyl]-N*2*-[7-(2,2,2-trifluoro-ethylamino)-6,7,8,9-tetrahydro-5H-benzocyclohepten-2-yl]-pyrimidine-2,4-diamine], the figures for the IC50 in assay [1] and in assay [2] were less than 100 nM and 100 to 1000 nM, respectively.
The matching figures for `CS(=O)(=O)N[C@@H]1CCCC[C@H]1Nc1nc(Nc2ccc3c(c2)CCC(NCC(F)(F)F)CC3)ncc1Cl` (stereo partly drawn) [Example 656, N-((1R,2R)-2-{5-Chloro-2-[7-(2,2,2-trifluoro-ethylamino)-6,7,8,9-tetrahydro-5H-benzocyclohepten-2-ylamino]-pyrimidin-4-ylamino}-cyclohexyl)-methanesulfonamide]: less than 100 nM and 100 to 1000 nM.
As for `Cc1cccnc1-c1ccccc1Nc1nc(Nc2ccc3c(c2)CCC(NCC(F)(F)F)CC3)ncc1Cl` (centres unmarked) [Example 657, 5-Chloro-N*4*-[2-(3-methyl-pyridin-2-yl)-phenyl]-N*2*-[7-(2,2,2-trifluoro-ethylamino)-6,7,8,9-tetrahydro-5H-benzocyclohepten-2-yl]-pyrimidine-2,4-diamine], the IC50 is 100 to 1000 nM in assay [1] and greater than 10000 nM in assay [2].
As for `COc1ccccc1Nc1nc(Nc2ccc3c(c2)CCC(NCC(F)(F)F)CC3)ncc1Cl` (centres unmarked) [Example 658, 5-Chloro-N*4*-(2-methoxy-phenyl)-N*2*-[7-(2,2,2-trifluoro-ethylamino)-6,7,8,9-tetrahydro-5H-benzocyclohepten-2-yl]-pyrimidine-2,4-diamine], the IC50 in assay [1] was 100 to 1000 nM; in assay [2], greater than 10000 nM.
